We go through 13 compounds from ChEMBL document CHEMBL5576046, “Replacement of sulfonamide by sulfoximine within a helicase-primase inhibitor with restricted flexibility” (Bioorg Med Chem Lett, 2024).

What all share (assay type): functional, organism-based
For test [1], the system named is Human alphaherpesvirus 2. The test is described as follows: Antiviral activity against HSV-2 infected in human ARPE-19 cells assessed as inhibition of viral replication incubated for 16 hrs by fluorescence based analysis. To be noted: Human alphaherpesvirus 2, ARPE-19, 16 h.
Test [2] deals with Human alphaherpesvirus 2. Kind of test: Antiviral activity against HSV-2.
The subject of test [3] is Human alphaherpesvirus 1. Kind of test: Antiviral activity against HSV-1 by CPE assay.
Test [4] deals with Human alphaherpesvirus 1. Kind of test: Antiviral activity against HSV-1.

Usually IC50 stands for the point on the concentration scale where inhibition reaches its midpoint. Regarding `NS(=O)(=O)c1cc2c(cc1F)CCN2C(=O)[C@@H]1Cc2ccc(-c3cc(F)ccc3F)cc2C1`, the IC50 in the test with Human alphaherpesvirus 2 [1] is 12 nM.
Regarding `Cc1nc(N(C)C(=O)C2Cc3ccc(-c4cc(F)ccc4F)cc3C2)sc1S(C)(=N)=O` (stereo in doubt; 2b), the figures for the IC50 in the test on Human alphaherpesvirus 2 [2] and in the test with Human alphaherpesvirus 1 [3] were 1250 nM and 300 nM, respectively.
Turning to `CS(=N)(=O)c1cc2c(cc1F)CCN2C(=O)[C@@H]1Cc2ccc(-c3ccccn3)cc2C1` (stereo partly specified), the IC50 with Human alphaherpesvirus 2 [1] is 37 nM.
As to `Cc1nc(N(C)C(=O)[C@H]2Cc3ccc(-c4cc(F)ccc4F)cc3C2)sc1S(N)(=O)=O`, the IC50 is 16000 nM in the test with Human alphaherpesvirus 2 [2] (Human alphaherpesvirus 2) and 2000 nM in the test on Human alphaherpesvirus 1 [3] (Human alphaherpesvirus 1).
In the case of `CS(=N)(=O)c1cc2c(cc1F)CCN2C(=O)[C@@H]1Cc2ccc(-c3cc(F)ccc3F)cc2C1` (stereo partly specified), the IC50 with Human alphaherpesvirus 2 [1] worked out at 48 nM.
For `Cc1nc(N(C)C(=O)Cc2ccc(-c3ccccn3)cc2)sc1S(N)(=O)=O` [PRITELIVIR], the IC50 with Human alphaherpesvirus 2 [2] (Human alphaherpesvirus 2) and in the test on Human alphaherpesvirus 1 [4] was 20 nM throughout.
Turning to `Cc1nc(N(C)C(=O)[C@@H]2Cc3ccc(-c4cc(F)ccc4F)cc3C2)sc1S(N)(=O)=O`, the IC50 was 16 nM in the test on Human alphaherpesvirus 2 [2] (Human alphaherpesvirus 2) and 1 nM in the test on Human alphaherpesvirus 1 [3] (Human alphaherpesvirus 1).
Take `Cc1nc(N(C)C(=O)C2Cc3ccc(-c4cc(F)ccc4F)cc3C2)sc1S(C)(=N)=O` (stereo in doubt; 2a): the IC50 with Human alphaherpesvirus 2 [2] and in the test with Human alphaherpesvirus 1 [3] was 25000 nM throughout.
As to `NS(=O)(=O)c1cc2c(cc1F)CCN2C(=O)[C@@H]1Cc2ccc(-c3ccccn3)cc2C1`, the IC50 in the test on Human alphaherpesvirus 2 [1] was found to be 6 nM.
With `Cc1nc(N(C)C(=O)C2Cc3ccc(-c4cc(F)ccc4F)cc3C2)sc1S(C)(=N)=O` (stereo in doubt; 2d), the results for the IC50 in the test on Human alphaherpesvirus 2 [2] and with Human alphaherpesvirus 1 [3] were 50000 nM and 8000 nM, respectively.
For the compound `Cc1nc(N(C)C(=O)C2Cc3ccc(-c4cc(F)ccc4F)cc3C2)sc1S(C)(=N)=O` (stereo in doubt; 2c), the IC50 in the test with Human alphaherpesvirus 2 [2] was 2000 nM; in the test with Human alphaherpesvirus 1 [3], 400 nM.
Regarding `Cc1nc(N(C)C(=O)Cc2ccc(-c3cc(F)ccc3F)cc2)sc1S(C)(=N)=O` (stereo unspecified), the IC50 in the test with Human alphaherpesvirus 2 [2] (Human alphaherpesvirus 2) worked out at 28 nM; in the test on Human alphaherpesvirus 1 [4] it was 19 nM.
`Cc1nc(N(C)C(=O)[C@@H]2Cc3ccc(-c4ccccn4)cc3C2)sc1S(N)(=O)=O` showed an IC50 in the test on Human alphaherpesvirus 1 [3] (Human alphaherpesvirus 1) of 7 nM.
